Active and inactive are the calls of the source. The rule behind the calls is not given here.
Each compound was assayed against Fibroblast growth factor receptor 3 (Homo sapiens) (UniProt P22607) (assay: Inhibition of FGFR3 at 50 uM).
Fibroblast growth factor receptor 3 (Homo sapiens), sequence (P22607 23-806 limits assumed): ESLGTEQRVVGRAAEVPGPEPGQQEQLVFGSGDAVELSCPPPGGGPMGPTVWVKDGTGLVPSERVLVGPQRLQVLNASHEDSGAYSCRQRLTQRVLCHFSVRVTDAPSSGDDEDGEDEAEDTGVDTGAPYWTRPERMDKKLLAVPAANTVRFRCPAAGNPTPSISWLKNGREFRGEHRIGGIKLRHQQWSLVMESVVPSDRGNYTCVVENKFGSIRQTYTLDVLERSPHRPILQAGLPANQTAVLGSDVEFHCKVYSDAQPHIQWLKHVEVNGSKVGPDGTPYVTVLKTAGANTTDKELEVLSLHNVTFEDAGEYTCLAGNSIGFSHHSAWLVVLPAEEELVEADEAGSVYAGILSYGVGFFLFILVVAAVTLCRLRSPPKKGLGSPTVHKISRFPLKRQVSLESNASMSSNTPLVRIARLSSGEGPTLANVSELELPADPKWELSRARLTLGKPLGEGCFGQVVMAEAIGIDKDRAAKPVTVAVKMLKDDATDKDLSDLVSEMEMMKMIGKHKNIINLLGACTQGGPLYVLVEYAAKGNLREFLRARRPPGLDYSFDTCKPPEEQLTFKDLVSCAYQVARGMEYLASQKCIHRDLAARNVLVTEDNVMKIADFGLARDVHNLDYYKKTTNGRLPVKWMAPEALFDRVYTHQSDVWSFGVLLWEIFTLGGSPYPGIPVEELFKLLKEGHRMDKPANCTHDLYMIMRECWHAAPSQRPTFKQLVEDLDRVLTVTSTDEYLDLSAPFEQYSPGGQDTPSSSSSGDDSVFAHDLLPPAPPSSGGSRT
For `Nc1ncnc2c1ncn2C[C@@H]1O[C@H](CO)[C@@H](O)[C@H]1O`, the “inhibition call (active / not active)” value was “inactive”. `OC[C@H]1O[C@@H](CNc2nc(NCCc3ccccc3)nc3[nH]cnc23)[C@@H](OCc2ccccc2)[C@@H]1OCc1ccccc1` was tested, and the “inhibition call (active / not active)” value was “Active”. In the case of `COc1ccc(CCNc2nc(NC[C@@H]3O[C@H](CO)[C@@H](O)[C@@H]3O)c3nc[nH]c3n2)cc1OC`, the “inhibition call (active / not active)” value is reported as “Active”. For `OC[C@H]1O[C@@H](CNc2nc(NCCN3CCOCC3)c3nc[nH]c3n2)[C@@H](O)[C@@H]1O`, the “inhibition call (active / not active)” value was “Active”. With `OC[C@H]1O[C@@H](CNc2nc(NCCc3ccccc3)nc3[nH]cnc23)[C@@H](O)[C@@H]1O` the “inhibition call (active / not active)” value was “Active”. With `OC[C@H]1O[C@@H](CNc2nc(NCCc3ccccc3)c3nc[nH]c3n2)[C@@H](OCc2ccccc2)[C@@H]1OCc1ccccc1` the “inhibition call (active / not active)” value was “Active”. `Nc1nc(N)c2ncn(C[C@@H]3O[C@H](CO)[C@@H](O)[C@H]3O)c2n1` was tested, and the “inhibition call (active / not active)” value was “inactive”. For `OC[C@H]1O[C@@H](CNc2nc(I)nc3[nH]cnc23)[C@@H](OCc2ccccc2)[C@@H]1OCc1ccccc1`, the “inhibition call (active / not active)” value was “Active”. In the case of `Ic1nc(NCCN2CCOCC2)c2nc[nH]c2n1`, the “inhibition call (active / not active)” value is reported as “Active”. With `CCN(CC)CCCNc1nc(N)c2ncn(C[C@@H]3O[C@H](CO)[C@@H](O)[C@H]3O)c2n1` the “inhibition call (active / not active)” value was “inactive”. `OC[C@H]1O[C@@H](CNc2nc(NCCc3ccccc3)c3nc[nH]c3n2)[C@@H](O)[C@@H]1O` was tested, and the “inhibition call (active / not active)” value was “Active”. With `CCN(CC)CCCNc1nc(Nc2ccccc2)c2ncn(C[C@@H]3O[C@H](CO)[C@@H](O)[C@H]3O)c2n1` the “inhibition call (active / not active)” value was “inactive”. In the case of `OC[C@H]1O[C@@H](CNc2nc(NCCN3CCOCC3)nc3[nH]cnc23)[C@@H](O)[C@@H]1O`, the “inhibition call (active / not active)” value is reported as “Active”. In the case of `COc1ccc(CCNc2nc(NC[C@@H]3O[C@H](CO)[C@@H](O)[C@@H]3O)nc3[nH]cnc23)cc1OC`, the “inhibition call (active / not active)” value is reported as “Active”. `Nc1ncc2ncn(C[C@@H]3O[C@H](CO)[C@@H](O)[C@H]3O)c2n1` was tested, and the “inhibition call (active / not active)” value was “inactive”. In the case of `Nc1nc(Nc2ccccc2)c2ncn(C[C@@H]3O[C@H](CO)[C@@H](O)[C@H]3O)c2n1`, the “inhibition call (active / not active)” value is reported as “inactive”.

Reference: ChEMBL document CHEMBL1759917, “Synthesis of purin-2-yl and purin-6-yl-aminoglucitols as C-nucleosidic ATP mimics and biological evaluation as FGFR3 inhibitors” (Eur J Med Chem, 2011)
